Assay results: ChEMBL document CHEMBL1201862, “PubChem BioAssay data set” (2004)
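Following 48 hours of exposure in 96-well plates, responses at five concentrations were used to interpolate endpoints linearly. GI50 = concentration required for 50% inhibition of growth.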 Calls of active or inactive are those of the source. Rule as the data show it: active = GI50 up to about 1.1 µM and inactive = higher.

Legend:
Assay in all cases: NCI anticancer screen, dose series, 48 h
OVCAR-5 = system: OVCAR-5
SF-295 = system: SF-295
HCC 2998 = system: HCC 2998
HOP-62 = system: HOP-62
A498 = system: A498
EKVX = system: EKVX
PC-3 = system: PC-3
CCRF-CEM = system: CCRF-CEM
UACC-257 = system: UACC-257
SK-MEL-5 = system: SK-MEL-5
DU-145 = system: DU-145
SK-MEL-2 = system: SK-MEL-2
SF-539 = system: SF-539
TK-10 = system: TK-10
Malme-3M = system: Malme-3M
RPMI-8226 = system: RPMI-8226
OVCAR-4 = system: OVCAR-4
SF-268 = system: SF-268

Structure (SMILES)	GI50 (OVCAR-5)	GI50 (SF-295)	GI50 (HCC 2998)	GI50 (HOP-62)	GI50 (A498)	GI50 (EKVX)	GI50 (PC-3)	GI50 (CCRF-CEM)	GI50 (UACC-257)	GI50 (SK-MEL-5)	GI50 (DU-145)	GI50 (SK-MEL-2)	GI50 (SF-539)	GI50 (TK-10)	GI50 (Malme-3M)	GI50 (RPMI-8226)	GI50 (OVCAR-4)	GI50 (SF-268)
CC(=O)OCCN1c2ccccc2Sc2cnccc21	> 10 µM (inactive)	> 10 µM (inactive)	> 10 µM (inactive)	> 10 µM (inactive)	> 10 µM (inactive)	8.55 µM (inactive)	> 10 µM (inactive)	> 10 µM (inactive)	> 10 µM (inactive)	> 10 µM (inactive)	> 10 µM (inactive)	> 10 µM (inactive)	> 10 µM (inactive)	> 10 µM (inactive)	> 10 µM (inactive)	> 10 µM (inactive)	> 10 µM (inactive)	> 10 µM (inactive)
CC(=O)N1C(C(=O)NNc2ccccc2)CSC1c1ccccc1 (stereo not drawn)	> 100 µM (inactive)	> 100 µM (inactive)	23 µM (inactive)	> 100 µM (inactive)	> 100 µM (inactive)	> 100 µM (inactive)	5.3 µM (inactive)	77.3 µM (inactive)	> 100 µM (inactive)	> 100 µM (inactive)	> 100 µM (inactive)	> 100 µM (inactive)	62.8 µM (inactive)	> 100 µM (inactive)	> 100 µM (inactive)	37.8 µM (inactive)	> 100 µM (inactive)	> 100 µM (inactive)
COC(=O)CCC1(O)C=CC(=O)C=C1	> 100 µM (inactive)	> 100 µM (inactive)	63.5 µM (inactive)	> 100 µM (inactive)	> 100 µM (inactive)	> 100 µM (inactive)	> 100 µM (inactive)	43.4 µM (inactive)	17.1 µM (inactive)	31.9 µM (inactive)	36.8 µM (inactive)	> 100 µM (inactive)	25.8 µM (inactive)	36.7 µM (inactive)	17 µM (inactive)	31.7 µM (inactive)	65.8 µM (inactive)	29.6 µM (inactive)
CC1=NN(c2nc(N)nc(CBr)n2)C(C)(C)C1	3.71 µM (inactive)	12.1 µM (inactive)	16.1 µM (inactive)	19.7 µM (inactive)	12.9 µM (inactive)	3.66 µM (inactive)	5.33 µM (inactive)	0.229 µM (active)	11.9 µM (inactive)	11.3 µM (inactive)	3.3 µM (inactive)	12.9 µM (inactive)	2.3 µM (inactive)	4.25 µM (inactive)	2.45 µM (inactive)	1.13 µM (inactive)	7.4 µM (inactive)	6.01 µM (inactive)
COc1ccc2c(c1)-c1nc(=S)n(CCCN(C)C)c3ccc([N+](=O)[O-])c(c13)N2	0.611 µM (active)	1.81 µM (inactive)	1.5 µM (inactive)	0.451 µM (active)	4.09 µM (inactive)	0.805 µM (active)	0.771 µM (active)	0.205 µM (active)	1.22 µM (inactive)	1.14 µM (inactive)	0.689 µM (active)	14.7 µM (inactive)	0.589 µM (active)	2.8 µM (inactive)	0.518 µM (active)	0.693 µM (active)	1.13 µM (inactive)	0.617 µM (active)
COc1cccc(C2CC(C)(N3CCCC3)Oc3cc4c(cc32)OCO4)c1O (stereo not drawn)	29.7 µM (inactive)	22.1 µM (inactive)	23 µM (inactive)	27 µM (inactive)	28.3 µM (inactive)	63.2 µM (inactive)	10.6 µM (inactive)	15.2 µM (inactive)	35.4 µM (inactive)	12.4 µM (inactive)	32 µM (inactive)	16.5 µM (inactive)	19.4 µM (inactive)	37.3 µM (inactive)	24.8 µM (inactive)	21.3 µM (inactive)	48.1 µM (inactive)	30.3 µM (inactive)
Cc1cn(S(=O)(=O)c2ccccc2)c2c(OCc3ccccc3)cc(NS(C)(=O)=O)cc12	61.8 µM (inactive)	14.7 µM (inactive)	24.4 µM (inactive)	50.2 µM (inactive)	8.15 µM (inactive)	5.35 µM (inactive)	3.92 µM (inactive)		10.1 µM (inactive)	4.35 µM (inactive)	31.3 µM (inactive)	18.1 µM (inactive)	38.8 µM (inactive)	> 85.9 µM (inactive)	8.38 µM (inactive)	13.2 µM (inactive)	6.35 µM (inactive)	14 µM (inactive)
COC(=O)C1=C(C(=O)NNc2ccccc2)N(c2cccnc2Cl)C(c2ccccc2)=CC1c1ccccc1 (stereo not drawn)	> 100 µM (inactive)	19.6 µM (inactive)	60.3 µM (inactive)	> 100 µM (inactive)	> 100 µM (inactive)	> 100 µM (inactive)	31.3 µM (inactive)	27.7 µM (inactive)	41.4 µM (inactive)	34 µM (inactive)	80.9 µM (inactive)	22.4 µM (inactive)	72.4 µM (inactive)	54.6 µM (inactive)	27.8 µM (inactive)	14.1 µM (inactive)	> 100 µM (inactive)	88.1 µM (inactive)
CC(=O)OCC1OC(N2C(=O)CC(N)=Nc3ccccc32)C(OC(C)=O)C(OC(C)=O)C1OC(C)=O (stereo not drawn)	> 100 µM (inactive)	74 µM (inactive)	75.7 µM (inactive)	81.7 µM (inactive)	62.8 µM (inactive)	83.2 µM (inactive)	42.6 µM (inactive)	> 100 µM (inactive)	32.4 µM (inactive)	17 µM (inactive)	63.4 µM (inactive)	48.4 µM (inactive)	23.2 µM (inactive)	75 µM (inactive)	28.9 µM (inactive)	14.4 µM (inactive)	57.8 µM (inactive)	45.4 µM (inactive)
CCN(CC)CCCNc1nncc2cc3c([nH]c4ccc(OC)cc43)c(C)c12	11.5 µM (inactive)	12.6 µM (inactive)	6.1 µM (inactive)	4.23 µM (inactive)	16.4 µM (inactive)	15.8 µM (inactive)	4.01 µM (inactive)	2.93 µM (inactive)	17.6 µM (inactive)	14.7 µM (inactive)	4.03 µM (inactive)	17.7 µM (inactive)	3.44 µM (inactive)	15.3 µM (inactive)	13.7 µM (inactive)	6.84 µM (inactive)	3.27 µM (inactive)	6.65 µM (inactive)
NC(=S)NS(=O)(=O)c1ccc(F)cc1F	> 100 µM (inactive)	> 100 µM (inactive)	> 100 µM (inactive)	> 100 µM (inactive)	> 100 µM (inactive)	> 100 µM (inactive)	> 100 µM (inactive)	> 100 µM (inactive)	> 100 µM (inactive)	> 100 µM (inactive)	> 100 µM (inactive)	> 100 µM (inactive)	> 100 µM (inactive)	> 100 µM (inactive)	> 100 µM (inactive)	> 100 µM (inactive)	> 100 µM (inactive)	> 100 µM (inactive)
O=c1cc(C(F)(F)F)c2cc3c(cc2o1)NCCC3	> 100 µM (inactive)	35 µM (inactive)	> 100 µM (inactive)	17.1 µM (inactive)	> 100 µM (inactive)	6.4 µM (inactive)	85.3 µM (inactive)	> 100 µM (inactive)	> 100 µM (inactive)	78.3 µM (inactive)	> 100 µM (inactive)	78.3 µM (inactive)	> 100 µM (inactive)	> 100 µM (inactive)	> 100 µM (inactive)	> 100 µM (inactive)	70.6 µM (inactive)	24.5 µM (inactive)
Cc1[nH]n(-c2ccc(S(=O)(=O)O)cc2)c(=O)c1/N=N/c1ccccc1	> 100 µM (inactive)	> 100 µM (inactive)	8.04 µM (inactive)	> 100 µM (inactive)	> 100 µM (inactive)	> 100 µM (inactive)	> 100 µM (inactive)		> 100 µM (inactive)	> 100 µM (inactive)	> 100 µM (inactive)	> 100 µM (inactive)	> 100 µM (inactive)	> 100 µM (inactive)	51.6 µM (inactive)	> 100 µM (inactive)	> 100 µM (inactive)	50.7 µM (inactive)
C[N+]1(CCC[N+]2(C)CC3C4C=CC(CC4)C3C2)CCOCC1 (stereo not drawn)	> 100 µM (inactive)	> 100 µM (inactive)	86.7 µM (inactive)	> 100 µM (inactive)	> 100 µM (inactive)	> 100 µM (inactive)	> 100 µM (inactive)	> 100 µM (inactive)	> 100 µM (inactive)	18.5 µM (inactive)	> 100 µM (inactive)	> 100 µM (inactive)	> 100 µM (inactive)	> 100 µM (inactive)	> 100 µM (inactive)	> 100 µM (inactive)	> 100 µM (inactive)	> 100 µM (inactive)
CC(=O)Oc1ccc(/C=C/C(=O)NCCOC(=O)/C=C/c2ccc(OC(C)=O)c(OC(C)=O)c2)cc1OC(C)=O	23.8 µM (inactive)	23.7 µM (inactive)	34.3 µM (inactive)	21.9 µM (inactive)	31.7 µM (inactive)	34.7 µM (inactive)	34 µM (inactive)	0.571 µM (active)	31.3 µM (inactive)	17.6 µM (inactive)	20.6 µM (inactive)	46.5 µM (inactive)	35.7 µM (inactive)	23 µM (inactive)	28.5 µM (inactive)	26.2 µM (inactive)	18.4 µM (inactive)	20 µM (inactive)
